Measured values from US4633014A, “Substituted 3-hydrazinopropionates” (priority 1983, dated 1986).
Counter-ions that a name gives are not always drawn.

Experiments:
[1] = tested on: arrhythmia induced by an intravenous administration of calcium chloride; assay: Antiarrhythmic activity on a model of arrhythmia induced by intravenous calcium chloride (antagonism to calcium) in mice; type: in vivo; details: white mice, 20-40 minutes before
Procedure: The specific (antiarrhythmic) effect and acute toxicity were studied.
The antiarrhythmic activity of the compounds according to the present invention was studied on a model of arrhythmia induced by an intravenous administration of calcium chloride. In experiments on white mice of both sexes with a mass of 18-25 g narcotized by urethane (1,200 mg/kg intraperitoneally) ECG in the second standard lead was recorded. A 2% solution of calcium chloride was introduced into the tail vein at a constant rate (0.01 ml for 2 sec). The dose of calcium chloride causing arrhythmia and the dose causing the heart arrest were determined. In the test groups the test compounds were administered intraperitoneally 20-40 minutes before the beginning of the experiment.

white mice = assay: in vivo
Procedure: (§1) The study of the effect provided by the compounds according to the present invention on the cardio-vascular system was carried out in experiments on white mice. The specific (antiarrhythmic) effect and acute toxicity were studied.
(§2) The acute toxicity of the compounds according to the present invention was determined in experiments on white mice with a mass of 20-25 g. The test compounds were administered intraperitoneally in the form of aqueous solutions or suspensions in Twin-80. Observation over the test animals was effected for 10 days.

in vivo = details: mouse, in vivo, ip
Procedure: as §1, §2

[2] = white mice, intraperitoneal, relative to quinidine

## COC(=O)CC(C(=O)OC)N(C(=O)c1ccccc1)N(C)C (centres unmarked) [I-58, 3-(2,2-dimethyl-1-benzoylhydrazino)-3-methoxycarbonyl-methylpropionate]
[1]; intraperitoneal dose 5 mg/kg
  Dose of calcium chloride causing arrythmia in animals under experiment: 97,0 mg/kg
  Dose of calcium chloride causing death in animals under experiment: 112,0 mg/kg
[1]; intraperitoneal dose 15 mg/kg
  Dose of calcium chloride causing arrythmia in animals under experiment: 100,5 mg/kg
  Dose of calcium chloride causing death in animals under experiment: 118,5 mg/kg
White mice; mouse, in vivo, ip, 14400 min
  Relative toxisity to quinidine: > 19,2
In vivo
  LD50 at 240 h: > 3000 mg/kg

## CN(C)N(CCC#N)C(=O)c1ccccc1 [I-54, 3-(2,2-dimethyl-1-benzoylhydrazino)propionitrile]
[1]; intraperitoneal dose 5 mg/kg
  Dose of calcium chloride causing arrythmia in animals under experiment: 108,3 mg/kg
  Dose of calcium chloride causing death in animals under experiment: 130,0 mg/kg
[1]; intraperitoneal dose 15 mg/kg
  Dose of calcium chloride causing arrythmia in animals under experiment: 102,5 mg/kg
  Dose of calcium chloride causing death in animals under experiment: 133,0 mg/kg
White mice; mouse, in vivo, ip, 14400 min
  Relative toxisity to quinidine: 6,6
In vivo
  LD50 at 240 h: 1030 mg/kg

## COC(=O)CCN(C(N)=O)N(C)C [I-1, 3-(2,2-Dimethyl-1-carbamoylhydrazino)-methylpropionate]
[1]; intraperitoneal dose 5 mg/kg
  Dose of calcium chloride causing arrythmia in animals under experiment: 118,5 mg/kg
  Dose of calcium chloride causing death in animals under experiment: 149,0 mg/kg
[1]; intraperitoneal dose 15 mg/kg
  Dose of calcium chloride causing arrythmia in animals under experiment: 124,4 mg/kg
  Dose of calcium chloride causing death in animals under experiment: 138,3 mg/kg
White mice; mouse, in vivo, ip, 14400 min
  Relative toxisity to quinidine: 13,3
In vivo
  LD50 at 240 h: 2080 mg/kg

## CN(C)N(CCC(=O)O)C(=O)Nc1ccccc1 [I-64, Potassium salt of 3-(2,2-dimethyl-1-phenylcarbamoylhydrazino)-methylpropionate]
[1]; intraperitoneal dose 5 mg/kg
  Dose of calcium chloride causing arrythmia in animals under experiment: 98 mg/kg
  Dose of calcium chloride causing death in animals under experiment: 147 mg/kg
[1]; intraperitoneal dose 15 mg/kg
  Dose of calcium chloride causing arrythmia in animals under experiment: 141,7 mg/kg
  Dose of calcium chloride causing death in animals under experiment: 163 mg/kg
White mice; mouse, in vivo, ip, 14400 min
  Relative toxisity to quinidine: 11,2
In vivo
  LD50 at 240 h: 1750 mg/kg

## CNC(=S)N(CCC(=O)OC)N(C)C [I-5, 3-(2,2-dimethyl-1-methylthiocarbamoylhydrazino)methylpropionate]
[1]; intraperitoneal dose 5 mg/kg
  Dose of calcium chloride causing arrythmia in animals under experiment: 87,5 mg/kg
  Dose of calcium chloride causing death in animals under experiment: 100,5 mg/kg
[1]; intraperitoneal dose 25 mg/kg
  Dose of calcium chloride causing arrythmia in animals under experiment: 127,3 mg/kg
  Dose of calcium chloride causing death in animals under experiment: 131,4 mg/kg
White mice; mouse, in vivo, ip, 14400 min
  Relative toxisity to quinidine: 25,3
In vivo
  LD50 at 240 h: 3950 mg/kg

## CCCCCCCCOC(=O)CCN(C(=S)Nc1ccccc1)N(C)C [I-60, 3-(2,2-dimethyl-1-phenylthiocarbamoylhydrazino)octylpropionate]
[1]; intraperitoneal dose 5 mg/kg
  Dose of calcium chloride causing arrythmia in animals under experiment: 90,8 mg/kg
  Dose of calcium chloride causing death in animals under experiment: 132,5 mg/kg
[1]; intraperitoneal dose 15 mg/kg
  Dose of calcium chloride causing arrythmia in animals under experiment: 107,5 mg/kg
  Dose of calcium chloride causing death in animals under experiment: 130,8 mg/kg
White mice; mouse, in vivo, ip, 14400 min
  Relative toxisity to quinidine: 15,5
In vivo
  LD50 at 240 h: 2420 mg/kg

## COC(=O)C(C)CN(C(C)=O)N(C)C (centres unmarked) [I-37, 3-(2,2-dimethyl-I-acetylhydrazino)-2-methylmethylpropionate]
[1]; intraperitoneal dose 5 mg/kg
  Dose of calcium chloride causing arrythmia in animals under experiment: 100 mg/kg
  Dose of calcium chloride causing death in animals under experiment: 132,0 mg/kg
[1]; intraperitoneal dose 15 mg/kg
  Dose of calcium chloride causing arrythmia in animals under experiment: 123 mg/kg
  Dose of calcium chloride causing death in animals under experiment: 138,0 mg/kg
White mice; [2]
  Relative toxisity to quinidine: 5,1
In vivo
  LD50 at 240 h: 810 mg/kg

## COC(=O)C(C)CN(C(=O)c1ccccc1)N(C)C (centres unmarked) [I-39, 3-(2,2-dimethyl-1-benzoylhydrazino)-2-methylmethylpropionate]
[1]; intraperitoneal dose 5 mg/kg
  Dose of calcium chloride causing arrythmia in animals under experiment: 88,7 mg/kg
  Dose of calcium chloride causing death in animals under experiment: 111,3 mg/kg
[1]; intraperitoneal dose 15 mg/kg
  Dose of calcium chloride causing arrythmia in animals under experiment: 100,0 mg/kg
  Dose of calcium chloride causing death in animals under experiment: 121,5 mg/kg
White mice; mouse, in vivo, ip, 14400 min
  Relative toxisity to quinidine: 11,2
In vivo
  LD50 at 240 h: 1750 mg/kg

## CCCCCCCCCCCCCCCCCC(=O)N(CCC(N)=O)N(C)C [I-50, 3-(2,2-dimethyl-1-octadecanoylhydrazino)propionamide]
[1]; intraperitoneal dose 5 mg/kg
  Dose of calcium chloride causing arrythmia in animals under experiment: 102,4 mg/kg
  Dose of calcium chloride causing death in animals under experiment: 118,0 mg/kg
[1]; intraperitoneal dose 15 mg/kg
  Dose of calcium chloride causing arrythmia in animals under experiment: 118,6 mg/kg
  Dose of calcium chloride causing death in animals under experiment: 142,5 mg/kg
White mice; mouse, in vivo, ip, 14400 min
  Relative toxisity to quinidine: > 19,2
In vivo
  LD50 at 240 h: > 3000 mg/kg

## COC(=O)CCN(C(=S)Nc1ccccc1)N(C)C [I-7, 3-(2,2-dimethyl-1-phenylthiocarbamoylhydrazino)methylpropionate]
[1]; intraperitoneal dose 5 mg/kg
  Dose of calcium chloride causing arrythmia in animals under experiment: 132 mg/kg
  Dose of calcium chloride causing death in animals under experiment: 135,6 mg/kg
[1]; intraperitoneal dose 15 mg/kg
  Dose of calcium chloride causing arrythmia in animals under experiment: 107,5 mg/kg
  Dose of calcium chloride causing death in animals under experiment: 138,0 mg/kg
[1]; intraperitoneal dose 25 mg/kg
  Dose of calcium chloride causing arrythmia in animals under experiment: 90,0 mg/kg
  Dose of calcium chloride causing death in animals under experiment: 113,0 mg/kg
White mice; mouse, in vivo, ip, 14400 min
  Relative toxisity to quinidine: 13,4
In vivo
  LD50 at 240 h: 2100 mg/kg

## CCCCCC(=O)N(CCC(=O)OC)N(C)C [I-26, 3-(2,2-dimethyl-1-hexanoylhydrazino)methylpropionate]
[1]; intraperitoneal dose 5 mg/kg
  Dose of calcium chloride causing arrythmia in animals under experiment: 111,3 mg/kg
  Dose of calcium chloride causing death in animals under experiment: 138,0 mg/kg
[1]; intraperitoneal dose 15 mg/kg
  Dose of calcium chloride causing arrythmia in animals under experiment: 107,6 mg/kg
  Dose of calcium chloride causing death in animals under experiment: 140,0 mg/kg
White mice; [2]
  Relative toxisity to quinidine: 4,0
In vivo
  LD50 at 240 h: 630 mg/kg

## CCOC(=O)CCN(C(=O)c1ccc(Br)cc1)N(C)C [I-46, 3-/2,2-dimethyl-1-(4'-bromobenzoyl)hydrazino/ethylpropionate]
[1]; intraperitoneal dose 5 mg/kg
  Dose of calcium chloride causing arrythmia in animals under experiment: 98,0 mg/kg
  Dose of calcium chloride causing death in animals under experiment: 105,0 mg/kg
[1]; intraperitoneal dose 15 mg/kg
  Dose of calcium chloride causing arrythmia in animals under experiment: 100,0 mg/kg
  Dose of calcium chloride causing death in animals under experiment: 118,3 mg/kg
White mice; mouse, in vivo, ip, 14400 min
  Relative toxisity to quinidine: 9,6
In vivo
  LD50 at 240 h: 1500 mg/kg

## CN(C)N(CCC#N)C(=O)Nc1ccccc1 [I-61, 3-(2,2-dimethyl-1-phenylcarbamoylhydrazino)propionitrile]
[1]; intraperitoneal dose 5 mg/kg
  Dose of calcium chloride causing arrythmia in animals under experiment: 105,0 mg/kg
  Dose of calcium chloride causing death in animals under experiment: 128,8 mg/kg
[1]; intraperitoneal dose 15 mg/kg
  Dose of calcium chloride causing arrythmia in animals under experiment: 102,6 mg/kg
  Dose of calcium chloride causing death in animals under experiment: 130,0 mg/kg
White mice; mouse, in vivo, ip, 14400 min
  Relative toxisity to quinidine: 8,0
In vivo
  LD50 at 240 h: 1250 mg/kg

## CCOC(=O)CCN(C(C)=O)N(C)C [I-42, 3-(2,2-dimethyl-1-acetylhydrazino)ethylpropionate]
[1]; intraperitoneal dose 5 mg/kg
  Dose of calcium chloride causing arrythmia in animals under experiment: 87,5 mg/kg
  Dose of calcium chloride causing death in animals under experiment: 112,0 mg/kg
[1]; intraperitoneal dose 15 mg/kg
  Dose of calcium chloride causing arrythmia in animals under experiment: 103,0 mg/kg
  Dose of calcium chloride causing death in animals under experiment: 115,0 mg/kg
White mice; mouse, in vivo, ip, 14400 min
  Relative toxisity to quinidine: 15,2
In vivo
  LD50 at 240 h: 2380 mg/kg

## COC(=O)C(C)CN(C(=S)Nc1ccccc1)N(C)C (centres unmarked) [I-14]
[1]; intraperitoneal dose 5 mg/kg
  Dose of calcium chloride causing arrythmia in animals under experiment: 96,4 mg/kg
  Dose of calcium chloride causing death in animals under experiment: 114,1 mg/kg
[1]; intraperitoneal dose 15 mg/kg
  Dose of calcium chloride causing arrythmia in animals under experiment: 85 mg/kg
  Dose of calcium chloride causing death in animals under experiment: 101,0 mg/kg
White mice; mouse, in vivo, ip, 14400 min
  Relative toxisity to quinidine: 12,5
In vivo
  LD50 at 240 h: 1960 mg/kg

## CCCC(=O)N(CCC(=O)OC)N(C)C [I-25, 3-(2,2-dimethyl-1-butyrylhydrazino)-methylpropionate]
[1]; intraperitoneal dose 5 mg/kg
  Dose of calcium chloride causing arrythmia in animals under experiment: 105,1 mg/kg
  Dose of calcium chloride causing death in animals under experiment: 112,3 mg/kg
[1]; intraperitoneal dose 25 mg/kg
  Dose of calcium chloride causing arrythmia in animals under experiment: 77,0 mg/kg
  Dose of calcium chloride causing death in animals under experiment: 95,0 mg/kg
White mice; mouse, in vivo, ip, 14400 min
  Relative toxisity to quinidine: 11,2
In vivo
  LD50 at 240 h: 1750 mg/kg

## C=CCNC(=S)N(CC(C)C(=O)OC)N(C)C (centres unmarked) [I-13]
[1]; intraperitoneal dose 5 mg/kg
  Dose of calcium chloride causing arrythmia in animals under experiment: 117,3 mg/kg
  Dose of calcium chloride causing death in animals under experiment: 136,5 mg/kg
[1]; intraperitoneal dose 15 mg/kg
  Dose of calcium chloride causing arrythmia in animals under experiment: 126,0 mg/kg
  Dose of calcium chloride causing death in animals under experiment: 138,0 mg/kg
White mice; mouse, in vivo, ip, 14400 min
  Relative toxisity to quinidine: 7,8
In vivo
  LD50 at 240 h: 1230 mg/kg

## C=CC(=O)N(CCC(=O)OC)N(C)C [I-34, 3-(2,2-dimethyl-1-acroylhydrazino)-methylpropionate]
[1]; intraperitoneal dose 5 mg/kg
  Dose of calcium chloride causing arrythmia in animals under experiment: 108,4 mg/kg
  Dose of calcium chloride causing death in animals under experiment: 130,0 mg/kg
[1]; intraperitoneal dose 15 mg/kg
  Dose of calcium chloride causing arrythmia in animals under experiment: 110,5 mg/kg
  Dose of calcium chloride causing death in animals under experiment: 136,0 mg/kg
White mice; mouse, in vivo, ip, 14400 min
  Relative toxisity to quinidine: 6,2
In vivo
  LD50 at 240 h: 980 mg/kg

## COC(=O)CCN(C(=O)OC)N(C)C [I-36, 3-(2,2-dimethyl-1-methoxycarbonylhydrazino)methylpropionate]
[1]; intraperitoneal dose 5 mg/kg
  Dose of calcium chloride causing arrythmia in animals under experiment: 94,0 mg/kg
  Dose of calcium chloride causing death in animals under experiment: 113,6 mg/kg
[1]; intraperitoneal dose 15 mg/kg
  Dose of calcium chloride causing arrythmia in animals under experiment: 98,6 mg/kg
  Dose of calcium chloride causing death in animals under experiment: 118,5 mg/kg
White mice; [2]
  Relative toxisity to quinidine: 8,8
In vivo
  LD50 at 240 h: 1380 mg/kg

## CC(CN(C(=S)Nc1ccccc1)N(C)C)C(N)=O (centres unmarked) [I-20, 3-(2,2-dimethyl-1-phenylthiocarbamoylhydrazino)2-methylpropionamide]
[1]; intraperitoneal dose 5 mg/kg
  Dose of calcium chloride causing arrythmia in animals under experiment: 102 mg/kg
  Dose of calcium chloride causing death in animals under experiment: 123 mg/kg
[1]; intraperitoneal dose 15 mg/kg
  Dose of calcium chloride causing arrythmia in animals under experiment: 106,4 mg/kg
  Dose of calcium chloride causing death in animals under experiment: 118,6 mg/kg
White mice; mouse, in vivo, ip, 14400 min
  Relative toxisity to quinidine: 8,6
In vivo
  LD50 at 240 h: 1340 mg/kg
